Structures can show the parent of a compound that is named as a salt. Where two headings read alike, the source gives them in different places.
Legend:
Format in all cases: cell-based
[1] = tested on: wild type NL4-3 virus (HIV-1) in HeLa-p4 cells; experiment: HeLa-p4 single-cycle HIV-1 infectivity, beta-galactosidase CPRG test; conditions: for activity at 50 µM: read-out: Hela-p4 CPRG 50 μM; for activity at 100 µM: read-out: Hela-p4 CPRG 100 μM
Description: (§1) HeLa-p4 cells are HeLa CD4 LTR-LacZ wherein LacZ expression is induced by the trans-activating protein Tat of HIV, making possible the precise quantification of HIV-1 infectivity from a single replication cycle. HeLa-CD4 cells growing exponentially at a density of 1×10^4/mL were placed in 96-well plates and infected the following day with 1 ng of HIV p24 antigen in the presence of different concentrations of compounds. The titles for a single cycle of the viruses were determined 48 hours after infection by quantifying the beta-galactosidase activity in lysates P4 by colorimetric test (CPRG, Promega) based on the cleavage of chlorophenol red-beta-D-galactopyranoside (CPRG) by beta-galactosidase. A cell viability assay measuring the absorbance at […] using the yellow tetrazolium reagent MTS [[…]] (Promega) was carried out.
(§2) For the helap4 cells experiments, the efficacy of the compounds is determined in comparison with control cells containing wild type NL4-3 virus alone (i.e. without any added compound) and is expressed as percentage of control. Then, the viral replication was increased for several compounds at the 50 and 100 μM concentrations with an absence of cytotoxic effects at the same concentrations (MTS test) (table 1).

[2] = tested on: HeLa-p4 cells; experiment: Cell viability assay (MTS) on HeLa-p4 cells
Description: as §1, §2

[3] = tested on: J-Lat cells; experiment: J-Lat cells, percentage of GFP-positive cells by cytometry; conditions: 24 h, compound alone
Description: The J-Lat were grown in RPMI 1640 medium (Gibco-BRL) supplemented with 10% fetal bovine serum, 50 U/ml of penicillin, […] of streptomycin at 37 uC in a humidified 95% air/5% CO2 atmosphere. The cells were plated at 5.105 cells in a 96 well-plate. TNF ? was purchased from Immunosource. SAHA (suberoylanilide hydroxamic acid), prostratin (12-deoxyphorbol-13-acetate) and vorinostat were obtained from Sigma-Aldrich. The J-Lat cells were treated for 24 h with the different compounds alone. The cells were washed twice in PBS, re-suspended in PBS containing 4% paraformaldehyde and fixed for 30 min. Cells were next washed and re-suspended in PBS. The percentage of GFP-positive cells was measured with a LSRFortessa cytometer (Becton-Dickinson) using FACSDiva Version 6.1.3 according to the manufacturer's instructions.
The results for the J-Lat cells experiments are expressed as a percentage of the living fluorescent cells. In this model, some slight increase of viral production measured by fluorescence are quantified (table 1).

[4] = Human immunodeficiency virus 1, NL43, HeLaP4, 50 μM, 48 hours after infection, control = NL4-3 virus alone
[5] = Human immunodeficiency virus 1, NL43, HeLaP4, 100 μM, 48 hours after infection, control = NL4-3 virus alone
[6] = Human immunodeficiency virus 1, NL43, HeLaP4, 48 hours after infection, control = NL4-3 virus alone
[7] = Human immunodeficiency virus 1, NL43, HeLaP4, 48 h

N[C@@H]1C[C@H](N)CN(Cc2ccccc2)C1 [ECO02-063-C, 1-benzylpiperidine-3,5-diamine trihydrochloride]
activity at 50 µM [1, 4]: 85%
activity at 100 µM [1, 5]: 107%
activity at 200 µM [1, 6]: 193%
Hela-p4 MTS 50 μM ([2]; 50 μM, cell viability): 108
Hela-p4 MTS 100 μM ([2]; 100 μM, cell viability): 112
Hela-p4 MTS 200 μM ([2]; cell viability): 81
J-lat 50 μM [3]: 2.9 percentage of the living fluorescent cells

Cc1ccc(CCN2C[C@H](N)C[C@H](N)C2)cc1 [ECO01-029-C, 1-(4-methylphenethyl)piperidine-3,5-diamine]
activity at 50 µM [1, 4]: 126%
activity at 100 µM [1, 5]: 109%
Hela-p4 MTS 50 μM ([2]; 50 μM, cell viability): 94
Hela-p4 MTS 100 μM ([2]; 100 μM, cell viability): 89
J-lat 50 μM [3]: 0.1 percentage of the living fluorescent cells
J-lat 100 μM [3]: 15.8 percentage of the living fluorescent cells

N[C@@H]1C[C@H](N)CN(CCc2ccc3c(c2)OCO3)C1 [ECO01-033-C, 1-(2-(benzo[d][1,3]dioxol-5-yl)ethyl)piperidine-3,5-diamine]
activity at 50 µM [1, 4]: 103%
activity at 100 µM [1, 5]: 146%
Hela-p4 MTS 50 μM ([2]; 50 μM, cell viability): 97
Hela-p4 MTS 100 μM ([2]; 100 μM, cell viability): 94
J-lat 50 μM [3]: 0.1 percentage of the living fluorescent cells
J-lat 100 μM [3]: 0.2 percentage of the living fluorescent cells

COC(=O)N[C@@H]1C[C@H](NC(=O)OC)CN(CCc2cccc(OC)c2)C1 [ECO02-074-C, dimethyl (1-(3-methoxyphenethyl)piperidine-3,5-diyl)dicarbamate]
activity at 50 µM [1, 4]: 139%
activity at 100 µM [1, 5]: 186%
activity at 200 µM [1, 6]: 326%
Hela-p4 MTS 50 μM ([2]; 50 μM, cell viability): 101
Hela-p4 MTS 100 μM ([2]; 100 μM, cell viability): 91
Hela-p4 MTS 200 μM ([2]; cell viability): 70
J-lat 50 μM [3]: 0.4 percentage of the living fluorescent cells

1-(3,5-diaminopiperidin-1-yl)-2-(3-methoxyphenyl)ethanone [ECO02-031-C]
Hela-p4 CPRG 50 μM ([1]; 50 μM, 48 hours after infection, control = NL4-3 virus alone): 146 percentage of control
Hela-p4 CPRG 100 μM ([1]; 100 μM, 48 hours after infection, control = NL4-3 virus alone): 222 percentage of control
Hela-p4 MTS 50 μM [2]: 116
Hela-p4 MTS 100 μM [2]: 110
J-lat 50 μM [3]: 0.2 percentage of the living fluorescent cells
J-lat 100 μM [3]: 0.1 percentage of the living fluorescent cells

COc1ccc(N2C[C@H](N)C[C@H](N)C2)cc1 [ECO01-056-C, 1-(4-methoxyphenyl)piperidine-3,5-diamine]
activity at 50 µM [1, 4]: 94%
activity at 100 µM [1, 5]: 122%
Hela-p4 MTS 50 μM ([2]; 50 μM, cell viability): 68
Hela-p4 MTS 100 μM ([2]; 100 μM, cell viability): 81
J-lat 50 μM [3]: 0.1 percentage of the living fluorescent cells
J-lat 100 μM [3]: 0.2 percentage of the living fluorescent cells

CN(C)c1ccc(CN2C[C@H](N)C[C@H](N)C2)cc1 [ECO02-069-B, 1-(4-(dimethylamino)benzyl)piperidine-3,5-diamine]
activity at 50 µM [1, 7]: 86%
activity at 100 µM [1, 7]: 88%
Hela-p4 MTS 50 μM ([2]; 50 μM, cell viability): 99
Hela-p4 MTS 100 μM ([2]; 100 μM, cell viability): 94
J-lat 50 μM [3]: 1.3 percentage of the living fluorescent cells

N[C@@H]1C[C@H](N)CN(c2ccc(NC(=O)c3ccccc3)cc2)C1 [ECO03-002-C, N-(4-(3,5-diaminopiperidin-1-yl)phenyl)benzamide]
activity at 50 µM [1, 4]: 120%
activity at 100 µM [1, 5]: 165%
activity at 200 µM [1, 6]: 317%
Hela-p4 MTS 50 μM ([2]; 50 μM, cell viability): 115
Hela-p4 MTS 100 μM ([2]; 100 μM, cell viability): 116
Hela-p4 MTS 200 μM ([2]; cell viability): 74
J-lat 50 μM [3]: 0.5 percentage of the living fluorescent cells

N[C@@H]1C[C@H](N)CN(Cc2ccco2)C1 [ECO02-065-C]
activity at 50 µM [1, 4]: 108%
activity at 100 µM [1, 5]: 125%
activity at 200 µM [1, 6]: 205%
Hela-p4 MTS 50 μM ([2]; 50 μM, cell viability): 91
Hela-p4 MTS 100 μM ([2]; 100 μM, cell viability): 88
Hela-p4 MTS 200 μM ([2]; cell viability): 68
J-lat 50 μM [3]: 0.5 percentage of the living fluorescent cells

CC(C)(C)OC(=O)N[C@@H]1C[C@H](NC(=O)OC(C)(C)C)CN(S(=O)(=O)c2ccccc2)C1 [ECO02-081-C, di-tert-butyl (1-(phenylsulfonyl)piperidine-3,5-diyl)dicarbamate]
activity at 50 µM [1, 4]: 196%
activity at 100 µM [1, 5]: 207%
activity at 200 µM [1, 6]: 279%
Hela-p4 MTS 50 μM ([2]; 50 μM, cell viability): 91
Hela-p4 MTS 100 μM ([2]; 100 μM, cell viability): 69
Hela-p4 MTS 200 μM ([2]; cell viability): 77
J-lat 50 μM [3]: 0.8 percentage of the living fluorescent cells

COc1ccc(CCN2C[C@H](N)C[C@H](N)C2)cc1OC [AB-77, (3S,5R)-1-(3,4-dimethoxyphenethyl)piperidine-3,5-diamine]
activity at 50 µM [1, 4]: 165%
activity at 100 µM [1, 5]: 184%
activity at 200 µM [1, 6]: 310%
Hela-p4 MTS 50 μM ([2]; 50 μM, cell viability): 93
Hela-p4 MTS 100 μM ([2]; 100 μM, cell viability): 97
Hela-p4 MTS 200 μM ([2]; cell viability): 69
J-lat 50 μM [3]: 0.1 percentage of the living fluorescent cells
J-lat 100 μM [3]: 0.8 percentage of the living fluorescent cells

COc1cccc(N2C[C@H](N)C[C@H](N)C2)c1 [ECO01-055-C, 1-(3-methoxyphenyl)piperidine-3,5-diamine]
activity at 50 µM [1, 4]: 111%
activity at 100 µM [1, 5]: 153%
Hela-p4 MTS 50 μM ([2]; 50 μM, cell viability): 94
Hela-p4 MTS 100 μM ([2]; 100 μM, cell viability): 94
J-lat 50 μM [3]: 0.4 percentage of the living fluorescent cells
J-lat 100 μM [3]: 0.1 percentage of the living fluorescent cells

N[C@@H]1C[C@H](N)CN(C23CC4CC(CC(C4)C2)C3)C1 [AB541, 1-(adamantan-1-yl)piperidine-3,5-diamine]
activity at 50 µM [1, 4]: 158%
activity at 100 µM [1, 5]: 157%
Hela-p4 MTS 50 μM ([2]; human, 50 μM): 141
Hela-p4 MTS 100 μM ([2]; human, 100 μM): 123
J-lat 50 μM [3]: 0.1 percentage of the living fluorescent cells
J-lat 100 μM [3]: 10.5 percentage of the living fluorescent cells

COC(=O)[C@H](Cc1ccccc1)N1C[C@H](N)C[C@H](N)C1 [AB-81, (S)-methyl 2-((3S,5R)-3,5-diaminopiperidin-1-yl)-3-phenylpropanoate]
activity at 50 µM [1, 4]: 151%
activity at 100 µM [1, 5]: 147%
Hela-p4 MTS 50 μM ([2]; 50 μM, cell viability): 96
Hela-p4 MTS 100 μM ([2]; 100 μM, cell viability): 94
J-lat 50 μM [3]: 0.1 percentage of the living fluorescent cells
J-lat 100 μM [3]: 0.8 percentage of the living fluorescent cells

COc1cccc(CCN2C[C@@H](N)C[C@@H](NS(C)(=O)=O)C2)c1 (racemic) [ECO02-073-C, rac-cis-N-(5-amino-1-(3-methoxyphenethyl)piperidin-3-yl) methanesulfonamide]
activity at 50 µM [1, 4]: 151%
activity at 100 µM [1, 5]: 205%
activity at 200 µM [1, 6]: 417%
Hela-p4 MTS 50 μM ([2]; 50 μM, cell viability): 100
Hela-p4 MTS 100 μM ([2]; 100 μM, cell viability): 99
Hela-p4 MTS 200 μM ([2]; cell viability): 79
J-lat 50 μM [3]: 0.8 percentage of the living fluorescent cells

COc1ccc2[nH]cc(CCN3C[C@H](N)C[C@H](N)C3)c2c1 [AB-84, (3S,5R)-1-(2-(5-methoxy-1H-indol-3-yl)ethyl)piperidine-3,5-diamine]
activity at 50 µM [1, 4]: 112%
activity at 100 µM [1, 5]: 75%
Hela-p4 MTS 50 μM ([2]; 50 μM, cell viability): 62
Hela-p4 MTS 100 μM ([2]; 100 μM, cell viability): 60
J-lat 50 μM [3]: 0.1 percentage of the living fluorescent cells
J-lat 100 μM [3]: 6.9 percentage of the living fluorescent cells

CCc1ccc(C(=O)NC(CCCCN)C(=O)N2C[C@H](N)C[C@H](N)C2)cc1 (some centres unmarked) [AB289-2, N-(6-amino-1-(3,5-diaminopiperidin-1-yl)-1-oxohexan-2-yl)-4-ethylbenzamide]
activity at 50 µM [1, 4]: 154%
activity at 100 µM [1, 5]: 219%
activity at 200 µM [1, 6]: 248%
Hela-p4 MTS 50 μM ([2]; 50 μM, cell viability): 113
Hela-p4 MTS 100 μM ([2]; 100 μM, cell viability): 101
Hela-p4 MTS 200 μM ([2]; cell viability): 72
J-lat 50 μM [3]: 0.1 percentage of the living fluorescent cells
J-lat 100 μM [3]: 0.2 percentage of the living fluorescent cells

Cc1ccccc1CCN1C[C@H](N)C[C@H](N)C1 [ECO01-028-C, 1-(2-methylphenethyl)piperidine-3,5-diamine]
activity at 50 µM [1, 4]: 108%
activity at 100 µM [1, 5]: 113%
Hela-p4 MTS 50 μM ([2]; 50 μM, cell viability): 91
Hela-p4 MTS 100 μM ([2]; 100 μM, cell viability): 94
J-lat 50 μM [3]: 0.1 percentage of the living fluorescent cells
J-lat 100 μM [3]: 0 percentage of the living fluorescent cells

CC(C)(C)OC(=O)N[C@@H]1C[C@H](NC(=O)OC(C)(C)C)CN(Cc2ccccc2)C1 [ECO02-056-C, di-tert-butyl (1-benzylpiperidine-3,5-diyl)dicarbamate]
activity at 50 µM [1, 4]: 100%
activity at 100 µM [1, 5]: 79%
Hela-p4 MTS 50 μM ([2]; 50 μM, cell viability): 67
Hela-p4 MTS 100 μM ([2]; 100 μM, cell viability): 38
J-lat 50 μM [3]: 1.6 percentage of the living fluorescent cells
